Laboratory results published in ChEMBL document CHEMBL1212738, “Phenotypic and genotypic characterization of Enterobacteriaceae with decreased susceptibility to carbapenems: results from large hospital-based surveillance studies in China” (2010).
≈ marks a conversion by molar mass, not a printed value.

Tests used:
Citrobacter freundii [1] = test: Antimicrobial activity against Citrobacter freundii SZ63T expressing IMP-4, qnrS1by CLSI method; type: functional
Klebsiella pneumoniae [2] = test: Antimicrobial activity against Klebsiella pneumoniae ZJ18T expressing KPC-2, DHA-1 by CLSI method; type: functional
Escherichia coli [3] = test: Antimicrobial activity against carbapenem-resistant Escherichia coli ZJ86 expressing KPC-2, TEM-1 with ompC loss by CLSI method
Escherichia coli [4] = test: Antimicrobial activity against Escherichia coli C600 by CLSI method; type: functional
Klebsiella pneumoniae [5] = test: Antimicrobial activity against carbapenem-resistant Klebsiella pneumoniae ZJ18 deficient in KPC-2, SHV-28, DHA-1, ompK35 by CLSI method; type: functional
Escherichia coli [6] = test: Antimicrobial activity against Escherichia coli ZJ87 expressing KPC-2, TEM-1, ompC by CLSI method; type: functional
Klebsiella pneumoniae [7] = test: Antimicrobial activity against Klebsiella pneumoniae ZJ70T expressing KPC-2 by CLSI method; type: functional
Klebsiella pneumoniae [8] = test: Antimicrobial activity against Klebsiella pneumoniae WH97 expressing SHV-33, aac(6')-Ib, ompK35 DE by CLSI method; type: functional
Klebsiella pneumoniae [9] = test: Antimicrobial activity against carbapenem-resistant Klebsiella pneumoniae XJ81 deficient in TEM-1, SHV-12, DHA-1, aac(6')-Ib, ompK35/36 by CLSI method; type: functional
Escherichia coli [10] = test: Antimicrobial activity against Escherichia coli C600 transconjugant WH77T expressing IMP-4, TEM-1, CTX-M-3, qnrS1 by CLSI method
Klebsiella pneumoniae [11] = test: Antimicrobial activity against carbapenem-resistant Klebsiella pneumoniae ZJ70 deficient in KPC-2, SHV-11, CTX-M-14, ompK35/36 by CLSI method; type: functional
Enterobacter cloacae [12] = test: Antimicrobial activity against carbapenem-resistant Enterobacter cloacae WH103 deficient in IMP-4, TEM-1, CTX-M-3, qnrS1, ompC by CLSI method; type: functional
Escherichia coli [13] = test: Antimicrobial activity against Escherichia coli C600 transconjugant SZ62T expressing IMP-4, qnrS1by CLSI method
Enterobacter cloacae [14] = test: Antimicrobial activity against carbapenem-resistant Enterobacter cloacae SZ92 deficient in IMP-4, TEM-1, CTX-M-14, DHA-1, qnrB10/B4-like, aac(6')-Ib, ompC by CLSI method; type: functional
Klebsiella aerogenes = test: Antimicrobial activity against carbapenem-resistant Enterobacter aerogenes PU41 deficient in CTX-M-14, DHA-1, qnrS1, ompC DEc, ompF by CLSI method; type: functional
Klebsiella pneumoniae [15] = test: Antimicrobial activity against Klebsiella pneumoniae FZ47T expressing IMP-8, TEM-1, CTX-M-14, qnrB2, aac(6')-Ib by CLSI method; type: functional
Klebsiella pneumoniae [16] = test: Antimicrobial activity against carbapenem-resistant Klebsiella pneumoniae GZ83 deficient in SHV-11, CTX-M-14, ompK35/36 by CLSI method; type: functional
Citrobacter freundii [17] = test: Antimicrobial activity against Citrobacter freundii RJ78 expressing CMY-2, qnrA1, aac(6')-Ib-cr, ompC by CLSI method; type: functional
Klebsiella pneumoniae [18] = test: Antimicrobial activity against carbapenem-resistant Klebsiella pneumoniae FZ49 deficient in IMP-8, TEM-1, SHV-11, CTX-M-14, qnrB2, aac(6')-Ib, ompK35/36 by CLSI method; type: functional
Escherichia coli [19] = test: Antimicrobial activity against Escherichia coli HX74T expressing CTX-M-3 by CLSI method; type: functional
Escherichia coli [20] = test: Antimicrobial activity against carbapenem-resistant Escherichia coli PU96 deficient in TEM-1, CTX-M-14, CMY-2, ompC/F by CLSI method; type: functional
Klebsiella pneumoniae [21] = test: Antimicrobial activity against carbapenem-resistant Klebsiella pneumoniae GZ66 deficient in SHV-11, DHA-1, ompK35/36 by CLSI method; type: functional
Klebsiella pneumoniae [22] = test: Antimicrobial activity against carbapenem-resistant Klebsiella pneumoniae SZ61 deficient in TEM-1, SHV-1a, CMY-2, ompK35/36 by CLSI method; type: functional
Klebsiella pneumoniae [23] = test: Antimicrobial activity against carbapenem-resistant Klebsiella pneumoniae ZJ69 deficient in SHV-28, ompK35/36 by CLSI method; type: functional
Escherichia coli [24] = test: Antimicrobial activity against Escherichia coli C600 transconjugant GZ66T expressing SHV-11, DHA-1 by CLSI method
Enterobacter cloacae [25] = test: Antimicrobial activity against carbapenem-resistant Enterobacter cloacae RJ94 deficient in IMP-4, TEM-1, CTX-M-3, ompC by CLSI method; type: functional
Escherichia coli [26] = test: Antimicrobial activity against Escherichia coli PU102T expressing TEM-1, CTX-M-14, CMY-2 by CLSI method; type: functional
Escherichia coli [27] = test: Antimicrobial activity against carbapenem-resistant Escherichia coli PU102 deficient in TEM-1, CTX-M-14, CMY-2, aac(6')-Ib, ompC DEc, ompF by CLSI method; type: functional
Escherichia coli [28] = test: Antimicrobial activity against carbapenem-resistant Escherichia coli PU60 deficient in TEM-1, CMY-2, ompC/F by CLSI method; type: functional
Klebsiella pneumoniae [29] = test: Antimicrobial activity against Klebsiella pneumoniae FZ49T expressing IMP-8, TEM-1, CTX-M-14, qnrB2, aac(6')-Ib by CLSI method; type: functional
Escherichia coli [30] = test: Antimicrobial activity against carbapenem-resistant Escherichia coli HX74 deficient in TEM-1, CTX-M-14, CTX-M-3, aac(6')-Ibcr, ompC/F by CLSI method; type: functional
Escherichia coli [31] = test: Antimicrobial activity against carbapenem-resistant Escherichia coli PU101 deficient in TEM-1, CTX-M-14, CMY-2, ompC by CLSI method; type: functional
Klebsiella pneumoniae [32] = test: Antimicrobial activity against Klebsiella pneumoniae ZJ99 expressing KPC-2, CTX-M-3, qnrS1, ompK35 DE by CLSI method; type: functional
Klebsiella pneumoniae [33] = test: Antimicrobial activity against carbapenem-resistant Klebsiella pneumoniae ZJ71 deficient in KPC-2, TEM-1, SHV-11, CTX-M-14, ompK35 by CLSI method; type: functional
Klebsiella pneumoniae [34] = test: Antimicrobial activity against Klebsiella pneumoniae WH77 expressing IMP-4, TEM-1, SHV-14, CTX-M-3, qnrS1 by CLSI method; type: functional
Klebsiella pneumoniae [35] = test: Antimicrobial activity against Klebsiella pneumoniae ZJ99T expressing KPC-2, CTX-M-3, qnrS1 by CLSI method; type: functional
Enterobacter cloacae [36] = test: Antimicrobial activity against carbapenem-resistant Enterobacter cloacae NJ90 deficient in CTX-M-14, ompC/F by CLSI method; type: functional
Klebsiella pneumoniae [37] = test: Antimicrobial activity against carbapenem-resistant Klebsiella pneumoniae PU3 deficient in DHA-1, aac(6')-Ib-cr, ompK35/36 by CLSI method; type: functional
Escherichia coli [38] = test: Antimicrobial activity against carbapenem-resistant Escherichia coli PU43 deficient in TEM-1, CTX-M-14, aac(6')-Ib, ompC/F by CLSI method; type: functional

Compound | MIC (Citrobacter freundii [1]) | MIC (Klebsiella pneumoniae [2]) | MIC (Escherichia coli [4]) | MIC (Klebsiella pneumoniae [5]) | MIC (Escherichia coli [6]) | MIC (Klebsiella pneumoniae [7]) | MIC (Klebsiella pneumoniae [8]) | MIC (Klebsiella pneumoniae [9]) | MIC (Klebsiella pneumoniae [11]) | MIC (Enterobacter cloacae [12]) | MIC (Enterobacter cloacae [14]) | MIC (Klebsiella aerogenes) | MIC (Klebsiella pneumoniae [15]) | MIC (Klebsiella pneumoniae [16]) | MIC (Citrobacter freundii [17]) | MIC (Klebsiella pneumoniae [18]) | MIC (Escherichia coli [19]) | MIC (Escherichia coli [20]) | MIC (Klebsiella pneumoniae [21]) | MIC (Klebsiella pneumoniae [22]) | also measured
C[C@@H](O)[C@H]1C(=O)N2C(C(=O)O)=C(S[C@@H]3CN[C@H](C(=O)N(C)C)C3)[C@H](C)[C@H]12 [MEROPENEM] | 4 µg/mL (≈ 10.4 µM) | 1 µg/mL (≈ 2.61 µM) | 0.03 µg/mL (≈ 0.0782 µM) | 8 µg/mL (≈ 20.9 µM) | 8 µg/mL (≈ 20.9 µM) | 8 µg/mL (≈ 20.9 µM) | 2 µg/mL (≈ 5.22 µM) | 2 µg/mL (≈ 5.22 µM) | 256 µg/mL (≈ 668 µM) | 8 µg/mL (≈ 20.9 µM) | 8 µg/mL (≈ 20.9 µM) | 8 µg/mL (≈ 20.9 µM) | 1 µg/mL (≈ 2.61 µM) | 8 µg/mL (≈ 20.9 µM) | 2 µg/mL (≈ 5.22 µM) | 2 µg/mL (≈ 5.22 µM) | 0.064 µg/mL (≈ 0.167 µM) | 8 µg/mL (≈ 20.9 µM) | 4 µg/mL (≈ 10.4 µM) | 8 µg/mL (≈ 20.9 µM) | MIC (Escherichia coli [3]): 8 µg/mL (≈ 20.9 µM); MIC (Escherichia coli [10]): 4 µg/mL (≈ 10.4 µM); MIC (Escherichia coli [13]): 4 µg/mL (≈ 10.4 µM); MIC (Klebsiella pneumoniae [23]): 4 µg/mL (≈ 10.4 µM); MIC (Escherichia coli [24]): 0.032 µg/mL (≈ 0.0834 µM); MIC (Enterobacter cloacae [25]): 8 µg/mL (≈ 20.9 µM); MIC (Escherichia coli [26]): 0.032 µg/mL (≈ 0.0834 µM); MIC (Escherichia coli [27]): 8 µg/mL (≈ 20.9 µM); MIC (Escherichia coli [28]): 8 µg/mL (≈ 20.9 µM); MIC (Klebsiella pneumoniae [29]): 1 µg/mL (≈ 2.61 µM)
POLYMYXIN B | 0.5 µg/mL | 0.25 µg/mL | 0.5 µg/mL | 0.5 µg/mL | 0.5 µg/mL | 0.25 µg/mL | 0.5 µg/mL | 0.5 µg/mL | 0.5 µg/mL | 0.5 µg/mL | 0.5 µg/mL | 0.5 µg/mL | 0.25 µg/mL | 1 µg/mL | 2 µg/mL | 1 µg/mL | 0.25 µg/mL | 0.5 µg/mL | 0.5 µg/mL | 0.5 µg/mL | MIC (Escherichia coli [30]): 0.5 µg/mL; MIC (Escherichia coli [31]): 0.5 µg/mL; MIC (Klebsiella pneumoniae [32]): 1 µg/mL; MIC (Klebsiella pneumoniae [33]): 1 µg/mL; MIC (Klebsiella pneumoniae [23]): 1 µg/mL; MIC (Klebsiella pneumoniae [34]): 1 µg/mL; MIC (Enterobacter cloacae [25]): 0.5 µg/mL; MIC (Klebsiella pneumoniae [35]): 0.25 µg/mL; MIC (Enterobacter cloacae [36]): 0.5 µg/mL; MIC (Escherichia coli [26]): 0.25 µg/mL; MIC (Klebsiella pneumoniae [37]): 0.5 µg/mL; MIC (Escherichia coli [27]): 0.5 µg/mL; MIC (Escherichia coli [38]): 0.5 µg/mL; MIC (Escherichia coli [28]): 0.5 µg/mL; MIC (Klebsiella pneumoniae [29]): 0.25 µg/mL
